Experimental findings from patent US9708306B2, “Benzimidazole derivatives and preparation process and pharmaceutical uses thereof” (WUHAN LL SCIENCE AND TECHNOLOGY DEVELOPMENT CO., LTD, priority 2015, dated 2017) are described below.

The structures appear in SMILES notation. Where two headings read alike, the source gives them in different places.

Assay [1] has as its system renovascular hypertensive rats. In words: Effect on reducing blood pressure of renovascular hypertensive rats by single oral administration of potassium salt of QR01019. The assay is classed as in vivo, Wistar rats. Particulars: RHR; for Maximum blood pressure reduction / Variations on heart rate: 1.0 mg/kg, single oral administration. Here is the method: Wistar rats (provided by Hubei Province Disease Prevention Control Center, Wuhan, Hubei), male, weighted of 180 to 200 g, are randomly classified into 5 groups, including negative control group (0.5% CMC-Na), positive control group (1.0 mg/kg of potassium salt of Azilsartan medoxomil as the positive drug) and three groups with the test compound, QR01019 potassium salt (1.0 mg/kg), 6-8 animals per group. The unilateral renal artery of the rates were ligated to form two-kidney, one-clip renovascular hypertensive rat (RHR) models. After the surgery, the blood pressure was measured for weekly, and the measurement continued for 4 weeks. The rats whose blood pressures were steadily elevated by 4 kPa were successfully modeled rats. Before measuring blood pressure, the rat tails were heated by using a cyclic water bath tail sleeve at 39° C. to expand tail vessel, and thereafter, a tail sleeve method (BP2010A noninvasive blood pressure meter, Beijing Jiandeer Technology Limited Corporation, No. 1, Shangdi 10th Street, Haidian District, Beijing) was used to measure the blood pressures and heart rates of the rats before the administrations and at 1, 3, 5, 7, and 10 hours after oral administration, and each of the time points was measured three times to take the mean value. Maximum Blood pressure reduction (%)=maximum blood pressure reduction value after the administration/blood pressure value before the administration*100%.

The test system of assay [2] is renovascular hypertensive rats. Description: Effect on reducing blood pressure of renovascular hypertensive rats by single oral administration. Particulars: for change in vivo at 0.5 mg/kg / inhibition in vivo at 0.5 mg/kg / change in vivo at 1 mg/kg / inhibition in vivo at 1 mg/kg / change in vivo at 2 mg/kg / inhibition in vivo at 2 mg/kg: Rattus norvegicus, single oral administration; for change in vivo at 0.5 mg/kg / change in vivo at 1 mg/kg / change in vivo at 2 mg/kg: RHR, read-out: Variations on heart rate; for inhibition in vivo at 0.5 mg/kg / inhibition in vivo at 1 mg/kg / inhibition in vivo at 2 mg/kg: two-kidney one-clip RHR, measured 1-10 h, read-out: Maximum blood pressure reduction; for blood pressure reduction at 24 hours after the administration / blood pressure reduction effect compared with Azilsartan medoxomil / lasting time of the blood pressure reduction effect compared with Azilsartan medoxomil: renal artery-ligated rat; for blood pressure reduction at 24 hours after the administration: dose not stated; for blood pressure reduction effect compared with Azilsartan medoxomil / lasting time of the blood pressure reduction effect compared with Azilsartan medoxomil: result in words. The assay is classed as in vivo, Wistar rats.

Assay [3] relates to spontaneously hypertensive rats (SHR). In words: Effect on reducing blood pressure of spontaneously hypertensive rats (SHR) by multiple oral administrations. As to conditions: for inhibition in vivo at 0.5 mg/kg / inhibition in vivo at 1 mg/kg / inhibition in vivo at 2 mg/kg: Rattus norvegicus; for inhibition in vivo at 0.5 mg/kg / inhibition in vivo at 1 mg/kg / inhibition in vivo at 2 mg/kg / blood pressure reduction effect compared with Azilsartan medoxomil: SHR; for blood pressure reduction effect compared with Azilsartan medoxomil / reduction effects on the heart rate of SHR rats: result in words; for reduction effects on the heart rate of SHR rats: during the whole administration. The assay is classed as in vivo.

The next assay has as its system normal rats. Description: Effect on blood pressure of normal rats by single oral administration. The assay is classed as in vivo, Wistar rats. As to conditions: Rattus norvegicus, po, single, normal rats; for inhibition in vivo at 0.5 mg/kg / inhibition in vivo at 1 mg/kg / inhibition in vivo at 2 mg/kg: 8 h, read-out: blood pressure reduction at 8 h after the administration; for inhibition in vivo at 0.5 mg/kg / change in vivo at 0.5 mg/kg: 0.5 mg/kg p.o.; for inhibition in vivo at 1 mg/kg / change in vivo at 1 mg/kg: 1.0 mg/kg p.o.; for inhibition in vivo at 2 mg/kg / change in vivo at 2 mg/kg: 2.0 mg/kg p.o.; for change in vivo at 0.5 mg/kg / change in vivo at 1 mg/kg / change in vivo at 2 mg/kg: read-out: variations on heart rate.

Where [4] appears, read: 0.5 mg/kg oral once per day, 1 hour after the administration, read-out: Maximum blood pressure reduction, 1st-day administration.
Where [5] appears, read: 0.5 mg/kg oral once per day, 1 hour after the administration, read-out: Maximum blood pressure reduction, 7th-day administration.
Where [6] appears, read: 0.5 mg/kg oral once per day, 1 hour after the administration, read-out: Maximum blood pressure reduction, 14th-day administration.
Setting [7] is: 0.5 mg/kg oral, read-out: Heart Rate (effect on reducing heart rate).
[8] abbreviates: 1.0 mg/kg oral once per day, 1 hour after the administration, read-out: Maximum blood pressure reduction, 1st-day administration.
The mark [9] stands for this setting: 1.0 mg/kg oral once per day, 1 hour after the administration, read-out: Maximum blood pressure reduction, 7th-day administration.
Setting [10] is: 1.0 mg/kg oral once per day, 1 hour after the administration, read-out: Maximum blood pressure reduction, 14th-day administration.
[11] abbreviates: 1.0 mg/kg oral, read-out: Heart Rate (effect on reducing heart rate).
The mark [12] stands for this setting: 2.0 mg/kg oral once per day, 1 hour after the administration, read-out: Maximum blood pressure reduction, 1st-day administration.
The mark [13] stands for this setting: 2.0 mg/kg oral once per day, 1 hour after the administration, read-out: Maximum blood pressure reduction, 7th-day administration.
Where [14] appears, read: 2.0 mg/kg oral once per day, 1 hour after the administration, read-out: Maximum blood pressure reduction, 14th-day administration.
[15] abbreviates: 2.0 mg/kg oral, read-out: Heart Rate (effect on reducing heart rate).

Consider `CCOc1nc2cccc(C(=O)OCc3oc(=O)oc3C)c2n1Cc1ccc(-c2ccccc2-c2noc(=O)[n-]2)cc1.[K+]` [Positive control, potassium salt of Azilsartan medoxomil, reference compound], for which, in assay [1], the “Maximum blood pressure reduction” value was determined as 34 ± 3.6% and the “Variations on heart rate” value is listed as −14 ± 7%.

For `CCOc1nc2cccc(C(=O)OC(C)OC(=O)OCc3nc(C)c(C)nc3C)c2n1Cc1ccc(-c2ccccc2-c2noc(=O)[nH]2)cc1.[K]` (stereo not shown) [QR01019 potassium salt], in assay [1], the “Maximum blood pressure reduction” value is 38 ± 4.3% and the “Variations on heart rate” value is recorded as −18 ± 5%. Besides, in assay [1] (result in words), the “regulation on the heart rate compared with positive control group” value is given as “obviously superior to the positive control group”. Besides, in assay [1] (same dosage, result in words), the “blood pressure reduction effect compared with control group” value is “significant blood pressure reduction effect”.

Regarding `CCOc1nc2cccc(C(=O)OCc3no[n+]([O-])c3CO[N+](=O)[O-])c2n1Cc1ccc(-c2ccccc2-c2noc(=O)[nH]2)cc1` [QR01034], the change in vivo at 0.5 mg/kg in assay [2] is -12 ± 8%; in the assay on normal rats, -2 ± 5%. The inhibition in vivo at 0.5 mg/kg in assay [2] turned out to be 23 ± 1.9%; in assay [3] (setting [4]) it was 25 ± 8.1%; in assay [3] (setting [5]) it was 28 ± 7.4%; in assay [3] (setting [6]), 26 ± 5.1%; in assay [3] (setting [7]) it was 19 ± 2%; with normal rats it was 3.4 ± 2.6%. Also, the results for the change in vivo at 1 mg/kg (in assay [2]; in the assay on normal rats) were -15 ± 7% and 5%, respectively. Further, the inhibition in vivo at 1 mg/kg in assay [2] stood at 36 ± 4.8%; in assay [3] (setting [8]), 39 ± 7.5%; in assay [3] (setting [9]), 39 ± 6.8%; in assay [3] (setting [10]), 42 ± 5.9%; in assay [3] (setting [11]), 15 ± 4%; in the assay with normal rats it was 5.1 ± 3.6%. The change in vivo at 2 mg/kg is -21 ± 7% in assay [2] and -2 ± 5% with normal rats. Besides, the inhibition in vivo at 2 mg/kg in assay [2] amounted to 45 ± 6%; in assay [3] (setting [12]), 44 ± 8.6%; in assay [3] (setting [13]), 45 ± 7%; in assay [3] (setting [14]), 46 ± 7.3%; in assay [3] (setting [15]), 21 ± 3%; with normal rats, 3.4 ± 5%. For the same compound, in assay [2], the “blood pressure reduction at 24 hours after the administration” value is listed as 25%. Further, the “blood pressure reduction effect compared with Azilsartan medoxomil” value in assay [2] and in assay [3] was “obviously superior to that of the Azilsartan medoxomil positive drug” throughout. In assay [2], the “lasting time of the blood pressure reduction effect compared with Azilsartan medoxomil” value is on record as “close to that of Azilsartan medoxomil”. For the same compound, in assay [3], the “reduction effects on the heart rate of SHR rats” value is reported as “significant reduction effects on the heart rate”.

`CCOc1nc2cccc(C(=O)OCc3no[n+]([O-])c3C#N)c2n1Cc1ccc(-c2ccccc2-c2noc(=O)[nH]2)cc1` [QR01036]: the change in vivo at 0.5 mg/kg in assay [2] is -12 ± 9%; in the assay with normal rats it was -1 ± 6%. The inhibition in vivo at 0.5 mg/kg in assay [2] worked out at 19 ± 3.5%; in assay [3] (setting [4]), 20 ± 5.3%; in assay [3] (setting [5]), 24 ± 8.6%; in assay [3] (setting [6]), 24 ± 5.9%; in assay [3] (setting [7]), 14 ± 4%; in the assay with normal rats it was 2.8 ± 2.1%. Also, the values for the change in vivo at 1 mg/kg (in assay [2]; in the assay with normal rats) were -18 ± 7% and -8 ± 2%, respectively. The inhibition in vivo at 1 mg/kg in assay [2] turned out to be 38 ± 4.2%; in assay [3] (setting [8]) it was 35 ± 7.8%; in assay [3] (setting [9]), 35 ± 4.6%; in assay [3] (setting [10]) it was 40 ± 7.8%; in assay [3] (setting [11]), 25 ± 2%; in the assay on normal rats, 5.2 ± 3.5%. Further, the results for the change in vivo at 2 mg/kg (in assay [2]; in the assay with normal rats) were -25 ± 7% and -5 ± 5%, respectively. The inhibition in vivo at 2 mg/kg turned out to be 46 ± 5% in assay [2]; 46 ± 9.2% in assay [3] (setting [12]); 45 ± 8.3% in assay [3] (setting [13]); 48 ± 7.2% in assay [3] (setting [14]); 21 ± 3% in assay [3] (setting [15]); 6.3 ± 2% in the assay with normal rats. Besides, the “blood pressure reduction at 24 hours after the administration” value in assay [2] was found to be 24%. Moreover, the “blood pressure reduction effect compared with Azilsartan medoxomil” value in assay [2] and in assay [3] was “obviously superior to that of the Azilsartan medoxomil positive drug” in each case. Also, the “lasting time of the blood pressure reduction effect compared with Azilsartan medoxomil” value in assay [2] is “close to that of Azilsartan medoxomil”. Besides, in assay [3], the “reduction effects on the heart rate of SHR rats” value is “significant reduction effects on the heart rate”.
